In patent publication US8895558B2, “Arylpiperazine-containing pyrrole 3-carboxamide derivatives for treating depressive disorders” (Green Cross Corporation, priority 2008, dated 2014):
Counter-ions that a name gives are not always drawn.

What was measured:
[1] = target: T1, human recombinant 5-HT2C receptor (Homo sapiens, UniProt P28335); assay: Binding affinity for serotonin 5-HT2C receptor ([3H]Mesulergine); conditions: CHO-K1 membranes, 1.3 nM [3H]Mesulergine
T1 construct: purchased PerkinElmer
T1 sequence (P28335 33-458): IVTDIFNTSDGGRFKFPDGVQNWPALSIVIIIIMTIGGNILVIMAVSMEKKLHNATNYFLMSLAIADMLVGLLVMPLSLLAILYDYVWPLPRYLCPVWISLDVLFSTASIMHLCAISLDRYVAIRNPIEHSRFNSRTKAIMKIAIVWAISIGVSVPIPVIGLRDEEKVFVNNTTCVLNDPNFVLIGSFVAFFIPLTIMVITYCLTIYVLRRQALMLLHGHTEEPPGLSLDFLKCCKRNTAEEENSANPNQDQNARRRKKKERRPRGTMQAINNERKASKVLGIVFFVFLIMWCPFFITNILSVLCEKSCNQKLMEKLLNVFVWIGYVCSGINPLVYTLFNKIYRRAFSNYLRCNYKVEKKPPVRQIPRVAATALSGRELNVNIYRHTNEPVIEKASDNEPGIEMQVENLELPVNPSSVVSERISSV
Method in brief: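 Competition binding with [3H]mesulergine; nonspecific binding defined with 100 uM mianserin. Incubation 60 min at 27, stopped by rapid filtration onto glass fiber filters presoaked in 0.5% PEI.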

[2] = target: T2, human serotonin transporter (Homo sapiens, UniProt P31645); assay: Binding affinity for serotonin transporter ([3H]Imipramine); conditions: HEK-293 membranes, 2 nM [3H]Imipramine
T2 construct: purchased PerkinElmer; host or cells: HEK-293
Method in brief: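 Membranes from HEK-293 cells expressing human serotonin transporter (5 ug/well) incubated with compound and 2 nM [3H]imipramine in 50 mM Tris-HCl pH 7.4, 120 mM NaCl, 5 mM KCl, 30 min at 27. Bound ligand separated by filtration onto glass fiber filters presoaked in 0.5% PEI, washed with ice-cold Tris-HCl/0.9% NaCl.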

[3] = target: T3, human recombinant serotonin 5-HT2A receptor (Homo sapiens, UniProt P28223); assay: Binding affinity for serotonin 5-HT2A receptor ([3H]Ketanserin); conditions: CHO-K1 expressed receptor, 1 nM [3H]Ketanserin
T3 construct: purchased PerkinElmer Life and Analytical Sciences, USA; host or cells: CHO-K1
Method in brief: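 Membranes from CHO-K1 cells expressing recombinant receptor (5 ug/well) incubated 60 min at 27 with 1 nM [3H]ketanserin in 50 mM Tris-HCl pH 7.4, 4 mM CaCl2, 0.1% ascorbic acid; mianserin 20 uM defined nonspecific binding. Filtration and counting; IC50 by nonlinear regression over 7-8 concentrations in duplicate.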

T2 sequence (P31645 whole entry): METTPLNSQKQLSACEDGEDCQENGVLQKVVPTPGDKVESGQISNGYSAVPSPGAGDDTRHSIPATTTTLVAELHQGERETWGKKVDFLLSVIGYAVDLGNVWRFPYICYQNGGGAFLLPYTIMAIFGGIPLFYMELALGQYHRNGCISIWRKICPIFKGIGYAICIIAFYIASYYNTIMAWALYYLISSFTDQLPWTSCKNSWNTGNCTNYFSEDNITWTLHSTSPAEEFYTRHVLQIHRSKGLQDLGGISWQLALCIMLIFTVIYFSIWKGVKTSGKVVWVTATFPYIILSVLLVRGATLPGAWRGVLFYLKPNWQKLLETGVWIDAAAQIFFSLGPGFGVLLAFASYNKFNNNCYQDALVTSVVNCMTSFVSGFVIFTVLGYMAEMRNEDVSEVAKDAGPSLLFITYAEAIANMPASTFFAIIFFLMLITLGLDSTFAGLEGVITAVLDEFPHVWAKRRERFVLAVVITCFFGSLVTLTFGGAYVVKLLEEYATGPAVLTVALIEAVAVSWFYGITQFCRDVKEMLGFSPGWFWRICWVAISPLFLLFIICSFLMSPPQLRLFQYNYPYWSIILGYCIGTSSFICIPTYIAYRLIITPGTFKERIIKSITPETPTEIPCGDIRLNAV
T3 sequence (P28223 whole entry): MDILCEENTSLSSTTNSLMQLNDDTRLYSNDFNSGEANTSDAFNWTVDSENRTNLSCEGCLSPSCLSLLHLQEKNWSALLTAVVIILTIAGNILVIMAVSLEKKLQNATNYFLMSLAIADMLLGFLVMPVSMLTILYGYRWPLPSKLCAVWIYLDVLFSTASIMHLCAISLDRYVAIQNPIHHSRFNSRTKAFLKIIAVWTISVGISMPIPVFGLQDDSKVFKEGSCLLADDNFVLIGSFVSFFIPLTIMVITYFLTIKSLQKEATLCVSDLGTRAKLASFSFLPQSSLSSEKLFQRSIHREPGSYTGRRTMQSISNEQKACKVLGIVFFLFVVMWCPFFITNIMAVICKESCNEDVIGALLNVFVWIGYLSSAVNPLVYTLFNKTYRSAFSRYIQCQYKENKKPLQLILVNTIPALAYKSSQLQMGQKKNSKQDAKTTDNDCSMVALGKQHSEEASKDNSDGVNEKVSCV

Compound | IC50 [1] [nM] | IC50 [2] [nM] | IC50 [3] [nM]
CCCn1c(-c2cccc(OC)c2)cc(C(=O)NCCCN2CCN(c3cccc(Cl)c3Cl)CC2)c1C [Example 82, N-(3-(4-(2,3-dichlorophenyl)piperazin-1-yl)propyl)-5-(3-methoxyphenyl)-2-methyl-1-propyl-1H-pyrrole-3-carboxamide hydrochloride] | 43 | 196 | 138
COc1cccc(-c2cc(C(=O)NCCCN3CCN(c4cccc(Cl)c4Cl)CC3)c(C)[nH]2)c1 [Example 83, N-(3-(4-(2,3-dichlorophenyl)piperazin-1-yl)propyl)-5-(3-methoxyphenyl)-2-methyl-1H-pyrrole-3-carboxamide hydrochloride] | 20 | 59 | 20
CCCn1c(-c2ccccc2)cc(C(=O)NCCCN2CCN(c3ccccc3OC)CC2)c1C [Example 84, N-(3-(4-(2-Methoxyphenyl)piperazin-1-yl)propyl)-2-methyl-5-phenyl-1-propyl-1H-pyrrole-3-carboxamide] | 1410 | 1080 | 953
CCCn1c(-c2ccccc2)cc(C(=O)NCCCN2CCN(c3ccc(OC)cc3)CC2)c1C [Example 87, N-(3-(4-(4-methoxyphenyl)piperazin-1-yl)propyl)-2-methyl-5-phenyl-1-propyl-1H-pyrrole-3-carboxamide dihydrochloride] | 4830 | 628 | 647
CCCn1c(-c2ccccc2)cc(C(=O)NCCCN2CCN(c3ccccc3Br)CC2)c1C [Example 88, N-(3-(4-(2-bromophenyl)piperazin-1-yl)propyl)-2-methyl-5-phenyl-1-propyl-1H-pyrrole-3-carboxamide] | 633 | 225 | 221
CCCn1c(-c2ccccc2)cc(C(=O)NCCCN2CCN(c3ccccc3C#N)CC2)c1C [Example 90, N-(3-(4-(2-cyanophenyl)piperazin-1-yl)propyl)-2-methyl-5-phenyl-1-propyl-1H-pyrrole-3-carboxamide hydrochloride] | 637 | 223 | 269
Cc1[nH]c(-c2ccccn2)cc1C(=O)NCCCN1CCN(c2cccc(Cl)c2Cl)CC1 [Example 91, N-(3-(4-(2,3-dichlorophenyl)piperazin-1-yl)propyl)-2-methyl-5-(pyridin-2-yl)-1H-pyrrole-3-carboxamide dihydrochloride] | 211 | 28 | 21
Cc1c(C(=O)NCCCN2CCN(c3cccc(Cl)c3Cl)CC2)cc(-c2ccccn2)n1C [Example 92, N-(3-(4-(2,3-dichlorophenyl)piperazin-1-yl)propyl)-1,2-dimethyl-5-(pyridin-2-yl)-1H-pyrrole-3-carboxamide dihydrochloride] | 267 | 110 | 43
CCCn1c(-c2ccccn2)cc(C(=O)NCCCN2CCN(c3cccc(Cl)c3Cl)CC2)c1C [Example 93, N-(3-(4-(2,3-dichlorophenyl)piperazin-1-yl)propyl)-2-methyl-1-propyl-5-(pyridin-2-yl)-1H-pyrrole-3-carboxamide dihydrochloride] | 639 | 397 | 58
CCCn1c(-c2ccccn2)cc(C(=O)NCCN2CCN(c3cccc(Cl)c3Cl)CC2)c1C [Example 96, N-(2-(4-(2,3-dichlorophenyl)piperazin-1-yl)ethyl)-2-methyl-1-propyl-5-(pyridin-2-yl)-1H-pyrrole-3-carboxamide dihydrochloride] | 619 | 381 | 410
Cc1c(C(=O)NCCCN2CCN(c3cccc(Cl)c3Cl)CC2)cc(-c2cccnc2)n1C [Example 100, N-(3-(4-(2,3-dichlorophenyl)piperazin-1-yl)propyl)-1,2-dimethyl-5-(pyridin-3-yl)-1H-pyrrole-3-carboxamide] | 209 | 92 | 49
CCCn1c(-c2cccnc2)cc(C(=O)NCCCN2CCN(c3cccc(Cl)c3Cl)CC2)c1C [Example 101, N-(3-(4-(2,3-dichlorophenyl)piperazin-1-yl)propyl)-2-methyl-1-propyl-5-(pyridin-3-yl)-1H-pyrrole-3-carboxamide] | 344 | 133 | 46
Cc1c(C(=O)NCCCN2CCN(c3cccc(Cl)c3Cl)CC2)cc(-c2ccncc2)n1C [Example 106, N-(3-(4-(2,3-dichlorophenyl)piperazin-1-yl)propyl)-1,2-dimethyl-5-(pyridin-4-yl)-1H-pyrrole-3-carboxamide] | 175 | 85 | 39
CCCn1c(-c2ccncc2)cc(C(=O)NCCCN2CCN(c3cccc(Cl)c3Cl)CC2)c1C [Example 107, N-(3-(4-(2,3-dichlorophenyl)piperazin-1-yl)propyl)-2-methyl-1-propyl-5-(pyridin-4-yl)-1H-pyrrole-3-carboxamide] | 420 | 78 | 34
O=C(NCCCN1CCN(c2cccc(Cl)c2Cl)CC1)c1cc(-c2ccccc2)[nH]c1Cl [Example 114, 2-chloro-N-(3-(4-(2,3-dichlorophenyl)piperazin-1-yl)propyl)-5-phenyl-1H-pyrrole-3-carboxamide] | 107 | 59 | 22
CCCn1c(-c2ccccc2)cc(C(=O)NCCCN2CCN(c3cccc(Cl)c3Cl)CC2)c1Cl [Example 116] | 136 | 1090 | 69
O=C(NCCCN1CCN(c2cccc(Cl)c2Cl)CC1)c1c[nH]c(-c2ccccc2)c1 [Example 124, N-(3-(4-(2,3-dichlorophenyl)piperazin-1-yl)propyl)-5-phenyl-1H-pyrrole-3-carboxamide] | 106 | 54 | 23
Cc1[nH]c(C(C)(C)C)cc1C(=O)NCCCN1CCN(c2cccc(Cl)c2Cl)CC1 [Example 127, 5-tert-butyl-N-(3-(4-(2,3-dichlorophenyl)piperazin-1-yl)propyl)-2-methyl-1H-pyrrole-3-carboxamide hydrochloride] | 1390 | 860 | 107
Cc1c(C(=O)NCCCN2CCN(c3cccc(Cl)c3Cl)CC2)cc(C(C)(C)C)n1C [Example 128, 5-tert-butyl-N-(3-(4-(2,3-dichlorophenyl)piperazin-1-yl)propyl)-1,2-dimethyl-1H-pyrrole-3-carboxamide] | 1020 | 375 | 163
C=CCCc1cc(C(=O)NCCCN2CCN(c3cccc(Cl)c3Cl)CC2)c(C)[nH]1 [Example 135, 5-(but-3-enyl)-N-(3-(4-(2,3-dichlorophenyl)piperazin-1-yl)propyl)-2-methyl-1H-pyrrole-3-carboxamide] | 157 | 144 | 65
C=CCCc1cc(C(=O)NCCCN2CCN(c3cccc(Cl)c3Cl)CC2)c(C)n1C [Example 136, 5-(but-3-enyl)-N-(3-(4-(2,3-dichlorophenyl)piperazin-1-yl)propyl)-1,2-dimethyl-1H-pyrrole-3-carboxamide] | 173 | 347 | 108
CCCCc1cc(C(=O)NCCCN2CCN(c3cccc(Cl)c3Cl)CC2)c(C)[nH]1 [Example 137, 5-butyl-N-(3-(4-(2,3-dichlorophenyl)piperazin-1-yl)propyl)-2-methyl-1H-pyrrole-3-carboxamide] | 133 | 62 | 68
CCCCc1cc(C(=O)NCCCN2CCN(c3cccc(Cl)c3Cl)CC2)c(C)n1C [Example 138, 5-butyl-N-(3-(4-(2,3-dichlorophenyl)piperazin-1-yl)propyl)-1,2-dimethyl-1H-pyrrole-3-carboxamide] | 268 | 334 | 134
Cc1c(C(=O)NCCCN2CCN(c3ccc(Cl)cc3Cl)CC2)cc(-c2ccccc2)n1C [Example 154, N-(3-(4-(2,4-Dichlorophenyl)piperazin-1-yl)propyl)-1,2-dimethyl-5-phenyl-1H-pyrrole-3-carboxamide hydrochloride] | 349 | 23 | 213
Cc1c(C(=O)NCCCN2CCN(c3ccc(F)cc3)CC2)cc(-c2ccccc2)n1C [Example 155, N-(3-(4-(4-Fluorophenyl)piperazin-1-yl)propyl)-1,2-dimethyl-5-phenyl-1H-pyrrole-3-carboxamide] | 493 | 183 | 22
